Test results reported in article PMC9090415, “Discovery of small molecule inhibitors of Plasmodium falciparum apicoplast DNA polymerase” (Journal of Enzyme Inhibition and Medicinal Chemistry, 2022).
Where two headings read alike, the source gives them in different places.

Experiments:
[1] = biological target: P. falciparum apicoplast DNA polymerase (Pf-apPOL) (Plasmodium falciparum, UniProt Q8ILY1); experiment: Fluorescence-based high-throughput DNA polymerase assay (molecular beacon), primary screen and dose-response; format: biochemical
P. falciparum apicoplast DNA polymerase (Pf-apPOL), sequence (Q8ILY1 entry or part of it): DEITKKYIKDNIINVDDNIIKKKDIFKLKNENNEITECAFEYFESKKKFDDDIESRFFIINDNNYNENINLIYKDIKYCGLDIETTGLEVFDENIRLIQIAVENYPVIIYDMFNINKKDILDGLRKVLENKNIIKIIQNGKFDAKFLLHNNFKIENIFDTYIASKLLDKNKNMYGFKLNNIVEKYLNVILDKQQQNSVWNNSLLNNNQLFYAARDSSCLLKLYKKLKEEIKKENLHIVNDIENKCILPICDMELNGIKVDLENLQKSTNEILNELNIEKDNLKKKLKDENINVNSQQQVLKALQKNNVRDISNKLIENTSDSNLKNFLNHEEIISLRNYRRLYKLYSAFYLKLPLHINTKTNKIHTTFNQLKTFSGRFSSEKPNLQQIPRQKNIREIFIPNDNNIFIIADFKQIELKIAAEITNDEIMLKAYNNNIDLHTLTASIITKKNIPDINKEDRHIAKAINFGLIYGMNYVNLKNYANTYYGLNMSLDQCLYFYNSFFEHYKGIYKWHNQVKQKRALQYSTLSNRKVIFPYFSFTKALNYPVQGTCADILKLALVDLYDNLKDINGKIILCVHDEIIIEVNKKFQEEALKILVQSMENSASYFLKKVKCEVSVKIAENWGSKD
How it was run: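 Single-point screening used 10 µM compound with 20 nM polymerase, 20 nM hairpin substrate and 6 µM dNTPs for 90 min at 25 °C. Confirmatory titrations (2.5–80 µM) followed fluorescence at three times, and IC50 was derived from a fit including a cooperativity term n.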

[2] = test system: chloroquine resistant P. falciparum parasites (strain Dd2); experiment: Parasite growth inhibition assay in human red blood cells (flow cytometry, acridine orange); format: cell-based; conditions: Plasmodium falciparum, Erythrocyte
Experimental: The chloroquine resistant P. falciparum parasites (strain Dd2) were cultured in de-identified, IRB-exempt human red blood cells (RBCs) obtained from the American Red Cross and parasite cultures were maintained as described. Parasitaemia (percentage of total RBCs infected) was measured by flow cytometry on an Attune NxT (ThermoFisher) by nucleic-acid staining of cultured RBCs with phosphate-buffered saline (PBS) containing 0.8 µg ml^−1 acridine orange. We began by determining percent growth inhibition at single compound dose (20 µM) for the 102 non-toxic compounds. […] The experiments were initiated with a starting parasitaemia of ∼1% and parasitaemia was measured 72 and 96 h post compound addition. Growth was normalised to parasite cultures with carrier only (DMSO).
(§1) We tested the ability of the 102 compounds to kill P. falciparum parasites cultured in human red blood cells. Due to the number of compounds, we used a single inhibitor concentration of 20 µM and performed experiments in triplicate. […] These compounds were then tested in a dose-response format against chloroquine resistant P. falciparum parasites (Dd2) and the resulting data were fit to a sigmoidal growth inhibition curve to determine EC50 values (Figure 5, Table 2). […] Finally, to determine if the compounds were killing the parasites solely via apicoplast disruption, the dose-response curves were also performed with 1 mM isopentylpyrophosphate (IPP) in the growth media (Table 2). […] Very little is known regarding mitochondrial DNA replication in P. falciparum; however, signal sequence identification algorithms have predicted that the other bacterial A-family DNA polymerase residing in P. falciparum is targeted to the mitochondria (PF3D7_0625300)[29]. […] We are currently in the process of cloning and expressing this putative mitochondrial DNA polymerase to determine the effect of these compounds on its activity.

[3] = biological target: Babesia bovis apicoplast DNA polymerase (Bb-apPOL); experiment: In vitro DNA polymerase inhibition assay, Bb-apPOL; format: biochemical; conditions: Table 2
Experimental: (§2) Codon-optimized, exonuclease-deficient Pf-apPOL was overexpressed in E. coli BL21 (DE3) and purified as described. The protein was dialysed against two, 1-liter changes of 20 mM Tris-HCl (pH 8.0), 400 mM NaCl, and 20% glycerol. Plasmodium bergei and Babesia bovis apPOLs (Pb-apPOL and Bb-apPOL, respectively) were codon-optimized, expressed, and purified as for Pf-apPOL[15]. Bacteriophage T4 DNA polymerase was purified as described. The DNA oligonucleotides used to make the high-throughput substrate were obtained from Integrated DNA Technologies. Deoxynucleotides were purchased from Strategene. All other materials came from Fisher Scientific.
as §1

[4] = biological target: T1, P. berghei apicoplast DNA polymerase (Pb-apPOL) (Plasmodium berghei, UniProt A0A509ALK1); experiment: In vitro DNA polymerase inhibition assay, Pb-apPOL; format: biochemical; conditions: Table 2
T1 sequence (A0A509ALK1 1182-1809): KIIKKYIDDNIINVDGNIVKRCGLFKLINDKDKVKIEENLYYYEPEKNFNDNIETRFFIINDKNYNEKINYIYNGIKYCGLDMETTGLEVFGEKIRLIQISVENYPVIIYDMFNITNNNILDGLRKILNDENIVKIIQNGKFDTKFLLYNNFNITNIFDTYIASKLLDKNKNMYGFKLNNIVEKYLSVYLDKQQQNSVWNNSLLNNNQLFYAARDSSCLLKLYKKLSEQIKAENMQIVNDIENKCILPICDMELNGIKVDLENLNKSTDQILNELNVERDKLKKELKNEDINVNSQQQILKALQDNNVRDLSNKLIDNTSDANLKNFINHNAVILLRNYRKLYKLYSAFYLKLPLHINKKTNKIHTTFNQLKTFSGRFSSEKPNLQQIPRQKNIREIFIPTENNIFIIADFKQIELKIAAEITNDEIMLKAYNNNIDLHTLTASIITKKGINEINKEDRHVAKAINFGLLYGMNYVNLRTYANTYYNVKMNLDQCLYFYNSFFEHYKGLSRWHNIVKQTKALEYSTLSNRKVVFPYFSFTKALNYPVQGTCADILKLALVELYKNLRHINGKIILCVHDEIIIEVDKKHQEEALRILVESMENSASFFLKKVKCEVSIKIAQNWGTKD
Experimental: as §2
The HT assay employs a molecular beacon, a stem-loop DNA template with a Cy3 dye and the Black Hole Quencher on the 3′ and 5′ ends of the DNA, respectively. Pf-apPOL concentration is based on a calculated absorptivity of ε280 = 56750 M^−1 cm^−1. Reactions were carried out at 25 °C, using Corning 3575 […] (well-volume, 20 µL). Assays testing for compound inhibition composed of reaction buffer (pH 7.9 in 50 mM potassium acetate, 20 mM Tris-acetate and 10 mM magnesium acetate), Pf-apPOL (20 nM), DNA substrate (20 nM), dNTPs (6 µM), and compound (10 µM in DMSO). The DNA and nucleotide substrates (dNTPs) were at concentrations of 20 nM and 6 µM, respectively, in the assay. Pf-apPOL was incubated in the reaction buffer with dNTPs and the compound of interest (10 µM, in the assay) at 25 °C for 10 min. The DNA substrate was then added and the reaction was allowed to proceed for 90 min at 25 °C.
In the above, Min is the average of fluorescence emission of the negative controls (substrate only), Max the average fluorescence emission from the positive controls (enzyme + substrate), and Test the emission from the assays in the presence of compounds (enzyme + compound + substrates). Dose-response confirmation assays were performed under similar conditions as the primary screen, but monitoring fluorescence at 10, 90, and 180 min. Tested concentrations of compounds were 2.5, 10, 20, 40, and 80 µM. The IC50 of each compound was determined using Equation (2): (2) […] Vmax/(1+ (I/IC50)^n)
We tested the ability of the 102 compounds to kill P. falciparum parasites cultured in human red blood cells. Due to the number of compounds, we used a single inhibitor concentration of 20 µM and performed experiments in triplicate. These single-dose assays identified 9 compounds that inhibited parasite growth by more than 50%. These compounds were then tested in a dose-response format against chloroquine resistant P. falciparum parasites (Dd2) and the resulting data were fit to a sigmoidal growth inhibition curve to determine EC50 values (Figure 5, Table 2). […] Inhibition of Pb-apPOL is a desired feature because it is likely that future in vivo studies will be performed in the mouse model for Malaria. […] The in vitro polymerase assays identified 5 compounds that were potent inhibitors of all three apicoplast polymerases and a single compound that inhibited Pf-apPOL and Bb-apPOL but not Pb-apPOL (Table 2). Finally, to determine if the compounds were killing the parasites solely via apicoplast disruption, the dose-response curves were also performed with 1 mM isopentylpyrophosphate (IPP) in the growth media (Table 2). […] At this time, it is unclear what the non-apicoplast target(s) may be. One intriguing possibility is that these compounds may be targeting both the apicoplast and the mitochondrial DNA polymerases. […]

[5] = read-out: IC50 Pf-apPOL, Table 2
[6] = supplemental file 2, sheet IC50 nontoxic compounds, Pf-apPOL

Row | Structure (SMILES) | IC50 [1, 5] [µM] | IC50 [1, 6] [µM] | EC50 ([2]; Dd2 parasites in human RBCs, dose-response, no IPP, read-out: EC50) [µM] | EC50 ([2]; Dd2 parasites, 1 mM isopentylpyrophosphate (IPP) in the growth media, read-out: EC50 + IPP) [µM] | IC50 [3] [µM] | IC50 [4] [µM]
1 | O=[N+]([O-])/C=C/c1ccc(-c2ccc(Br)cc2)o1 [Molecule 31] | 15 ± 1 | 15.8 | 8.9 ± 0.5 | 8.7 ± 0.6 | 15 ± 5 | –
2 | O=[N+]([O-])c1ccc(/C=C/c2ccc3ccccc3n2)o1 [Molecule 21] | 8 ± 1 | 8.41 | – | – | – | 9.7 ± 1.6
